Source: patent US7566722B2, “Triazolopyrimidine derivatives as ADP P2Y12 receptor antagonists” (Janssen Pharmaceutica, N.V., priority 2006, dated 2009)

Assays:
[1] = tested on: platelets; assay: In vitro platelet aggregation (ADP-induced, washed platelets); format: cell-based; conditions: Homo sapiens, washed platelets from healthy volunteers, agonist giving 60-70% aggregation, % inhibition of control ADP response
Experimental: Platelet aggregation studies were performed according to a published method (Bednar, B., Condra, C., Gould, R. J., and Connolly, T. M., Throm. Res., 77:453-463 (1995). Platelet-rich plasma (PRP) concentrates prepared from healthy volunteers who were aspirin free for at least 7 days by venipuncture using ACD-A as anticoagulant was purchased from Biological Specialties, Inc. (Colmar, Pa.). PRP was centrifuged at 730 g for 15 min. The platelet pellet was washed twice in CGS buffer (13 mM sodium citrate, 30 mM glucose, 120 mM NaCl, pH 6.5) containing 1 μ/ml apyrase (grade V, Sigma-Aldrich, St. Louis, Mo.), 1 mM EGTA, and resuspended in Tyrode's buffer (140 mM NaCl, 2.7 mM KCl, 12 mM NaHCO3, 0.76 mM Na2HPO4, 5.5 mM dextrose, 5.0 mM Hepes, 0.2% BSA, pH 7.4). The platelets were diluted to 3×10^8 platelets/ml and kept >45 min at 37° C. before use. 105 μl of washed platelets, 2 mM CaCl2 and […] of fibrinogen were added to a 96-well microliter plate.
Platelet aggregation was initiated by the addition of serial concentrations of ADP (BioData Corp. Horsham, Pa.). Buffer was added to one set of control wells. The assay plate was stirred constantly and intermittently placed in a microplate reader (Softmax, Molecular Devices, Menlo Park, Calif.) to read optical density (650 nm) at 0 and 5 minutes after the addition of the compound solutions. Aggregation was calculated as the decrease in optical density between the time 0- and 5-min measurements and expressed as % of aggregation. For the inhibition assay, platelet aggregation was conducted as described above except for compound additions. Test compounds were prepared in 100% DMSO and stored.
On the day of the assay, test compounds were diluted in the buffer containing 3% of DMSO as a 10× working solution. 15 μl of compound solutions were added to 105 μl of platelets 5 min prior to the addition of CaCl2 and fibrinogen.

[2] = biological target: T1, ADP P2Y12 receptor (Homo sapiens, UniProt Q9H244); assay: FLIPR calcium assay transducing Gi-coupled signaling to the Gq pathway (inhibition of ADP-induced calcium mobilization); format: cell-based; conditions: HEK 293 cells co-transfected with P2Y12 and Gqi5, ADP at EC60-70 dose
T1 construct: expressed in transfected cells
T1 sequence (Q9H244 whole entry): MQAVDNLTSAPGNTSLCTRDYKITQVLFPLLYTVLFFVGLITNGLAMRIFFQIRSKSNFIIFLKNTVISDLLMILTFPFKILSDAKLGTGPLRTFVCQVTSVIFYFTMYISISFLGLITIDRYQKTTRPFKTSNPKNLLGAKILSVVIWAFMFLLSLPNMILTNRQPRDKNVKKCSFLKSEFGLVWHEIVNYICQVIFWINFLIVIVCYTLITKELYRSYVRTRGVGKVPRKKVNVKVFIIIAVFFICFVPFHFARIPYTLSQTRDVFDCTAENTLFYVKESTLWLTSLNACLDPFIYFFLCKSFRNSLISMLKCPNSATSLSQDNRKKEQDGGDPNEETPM
Description: A FLIPR Calcium Assay Transducing Gi-Coupled Signaling to the Gq Pathway
The ADP P2Y12 subtype is a Gi coupled GPCR, which mediates inhibition of adenylate cyclase leading to decreased cAMP while Gq proteins primarily activate phospholipase C, which stimulates inositol-1,4,5-triphosphate (IP3) formation and a subsequent increase in intracellular Ca^2+ concentration, which can be easily measured by FLIPR. Prior to the development of a method to convert a Gi coupled GPCR signaling to a Gq coupled GPCR signaling, a significant barrier existed for the functional testing and screening of Gi coupled GPCRs. One popular method, GTPγS migration, is slow, produces a small signal and generates radioactive waste. The discovery that a small switch in the amino acid sequence in the Gi protein could convert it to a protein mediating a Gq coupled response has led to the development of robust, high throughput assays for this valuable receptor subtype.
The FLIPR-based HTS assay transducing the Gi signaling to the Gq pathway is described below.
pcDNA3hygroP2Y12 containing a hygromycin resistance gene and pLEC1-Gqi5-HA containing a neomycin resistance gene (licensed from Molecular Devices, Sunnyvale, Calif.) were co-transfected into Human embryonic kidney (HEK) 293 cells with SuperFect (Qiagen, Valencia, Calif.). Cell clones were selected in the presence of 600 μg/ml hygromycin B (Life Technologies, Carlsbad, Calif.) and 1 mg/ml of G418 (Mediatech, Herndon, Va.). Drug resistant colonies were picked and screened by FLIPR and the gene expression was further confirmed by RT-PCR. Positive clones were maintained in growth medium (DMEM supplemented with 10% FBS, 1× p/s) containing 400 μg/ml of G418 and 200 μg/ml of hygromycin.
The day before the assay, cells are seeded in clear, flat-bottom black-wall, tissue culture treated polystyrene 96- or 384-well plates and incubated at 37° C., 5% CO2. 50 μl of complete dye loading solution (FLIPR Calcium Assay Kit, Molecular Devices) was added to each well containing 100 μl of culture media. The cells were incubated for at least 30 min at 37° C., in 5% CO2 before initiating the assay on the FLIPR. The agonist effect of ADP was tested and EC50 was determined prior to compound testing. The EC60-70 dose was used.
The antagonist compounds were prepared at 4× and the agonists were diluted at 5× the concentration desired in the test wells, and then aliquoted into the sample plates. The sample plates and the cell plate were placed in the FLIPR assay chamber. A first addition (50 μl) was made at the start of reading and a second addition (50 μl) was made after 5 min of reading. Raw fluorescence data was exported for each well and tabulated versus time within an ASCII file. Data was then imported into Excel and the peak response over the basal level was determined. The percent inhibition for each compound was calculated by the change in fluorescent density as a % inhibition of the control ADP response to obtain an IC50, as shown in Table 1 (wherein N/A means Not Applicable).

[3] = biological target: T2, P2Y12 receptor (Homo sapiens, UniProt Q9H244); assay: Whole cell receptor binding assay, 2-MeS[3H]-ADP; conditions: HEK 293 cells stably transfected with P2Y12; 2-MeS[3H]-ADP 3 nM; 30 min at 37° C.; read-out: Inhibition of Receptor Binding (IC50 μM)
T2 construct: expressed in transfected cells
T2 sequence (Q9H244 whole entry): as above
Experimental: A whole cell-binding assay for 2-MeS [^3H]-ADP (Custom synthesized by Amersham BioScience, Piscataway, N.J.) to the P2Y12 receptor was performed.
A P2Y12 cDNA containing hygromycin resistant gene was transfected in HEK 293 cells. A stable cell line was obtained by a cloning selection method. The cells were cultured in DMEM supplemented with 10% FBS and 1× of p/s.
On the day of the assay, the cells were harvested and resuspended in 0.25% BSA-DMEM and adjusted to a cell concentration of 1.6×10^6/ml. 15 μl of each compound was mixed with 120 μl of cell suspension in 96 well assay plates and incubated for 5 min prior to the addition of the radio-labeled ligand 2-MeS[^3H]-ADP (3 nM final in 0.25% BSA-DMEM) or unlabeled […] (for non-specific binding). The reaction was then incubated for 30 min at 37° C. and stopped by adding cold DMEM. The labeled and unlabeled cells were separated by a filtration method using a Packard Filtermate 196 on to the unfilter-96 GF/B plate. The plates were dyed in a 37° C. oven for 1-2 hours and 50 μl of MicroScint-20 (PerkinElmer) was added to each well. The radioactivity was measured using a TOPCOUNT beta counter (Packard). The percent inhibition for each compound was calculated by the change in radioactivity as a % inhibition of the control to obtain an IC50, as shown in Table 2.

Row | IC50 [2] [µM] | IC50 [3] [µM] | SMILES | IC50 [1] [µM]
1 | 0.542 | 0.139 | CCCSc1nc(NCC2CC2)c2nnn([C@@H]3C[C@H](c4nnn[nH]4)[C@@H](O)[C@H]3O)c2n1 [Cpd 10, (1R,2S,3R,5R)-3-[7-(cyclopropylmethyl-amino)-5-propylsulfanyl-[1,2,3]triazolo[4,5-d]pyrimidin-3-yl]-5-(1H-tetrazol-5-yl)-cyclopentane-1,2-diol] | 1.54
2 | > 30 | 6.2 | CCCSc1nc(NCC(F)(F)F)c2nnn([C@@H]3C[C@H](c4nnc(C)[nH]4)[C@@H](O)[C@H]3O)c2n1 [Cpd 18, (1S,2R,3R,5R)-3-(5-methyl-4H-[1,2,4]triazol-3-yl)-5-[5-propylsulfanyl-7-(2,2,2-trifluoro-ethylamino)-[1,2,3]triazolo[4,5-d]pyrimidin-3-yl]-cyclopentane-1,2-diol] | > 30
3 | > 30 | 3.88 | CCCSc1nc(NC[C@@H](C)c2ccccc2)c2nnn([C@@H]3C[C@H](c4nnc(C)[nH]4)[C@@H](O)[C@H]3O)c2n1 [Cpd 16, (1S,2R,3R,5R)-3-(5-methyl-4H-[1,2,4]triazol-3-yl)-5-{7-[(2S)-2-phenylpropylamino]-5-propylsulfanyl-[1,2,3]triazolo[4,5-d]pyrimidin-3-yl}-cyclopentane-1,2-diol] | > 30
4 | 0.037 | 0.0043 | CCCSc1nc(N[C@@H]2C[C@H]2c2ccccc2)c2nnn([C@@H]3C[C@H](c4nnn[nH]4)[C@@H](O)[C@H]3O)c2n1 (mixture of isomers) [Cpd 1, (1R,2S,3R,5R)-3-{7-[(1RS,2SR)-2-phenyl-cyclopropylamino]-5-propylsulfanyl-[1,2,3]triazolo[4,5-d]pyrimidin-3-yl}-5-(1H-tetrazol-5-yl)-cyclopentane-1,2-diol] | 0.037
5 | 0.595 | 0.148 | CCCSc1nc(N[C@@H]2C[C@H]2c2ccccc2)c2nnn([C@@H]3C[C@H](Cn4ncnn4)[C@@H](O)[C@H]3O)c2n1 (mixture of isomers) [Cpd 3, (1R,2S,3R,5R)-3-{7-[(1RS,2SR)-2-phenyl-cyclopropylamino]-5-propylsulfanyl-[1,2,3]triazolo[4,5-d]pyrimidin-3-yl}-5-tetrazol-2-ylmethyl-cyclopentane-1,2-diol] | 1.24
6 | 0.799 | 0.371 | CCCSc1nc(N[C@@H]2C[C@H]2c2ccccc2)c2nnn([C@@H]3C[C@H](Cn4cnnn4)[C@@H](O)[C@H]3O)c2n1 (mixture of isomers) [Cpd 4, (1R,2S,3R,5R)-3-{7-[(1RS,2SR)-2-phenyl-cyclopropylamino]-5-propylsulfanyl-[1,2,3]triazolo[4,5-d]pyrimidin-3-yl}-5-tetrazol-1-ylmethyl-cyclopentane-1,2-diol] | 1.15
7 | 0.765 | 0.422 | CCCCNc1nc(SCCC)nc2c1nnn2[C@@H]1C[C@H](c2nnc[nH]2)[C@@H](O)[C@H]1O [Cpd 20, (1R,2S,3R,5R)-3-(7-butylamino-5-propylsulfanyl-[1,2,3]triazolo[4,5-d]pyrimidin-3-yl)-5-(4H-[1,2,4]triazol-3-yl)-cyclopentane-1,2-diol] | 0.198
8 | 3.12 | 0.665 | CCCSc1nc(NCC(F)(F)F)c2nnn([C@@H]3C[C@H](c4nnn[nH]4)[C@@H](O)[C@H]3O)c2n1 [Cpd 8, (1R,2S,3R,5R)-3-[5-propylsulfanyl-7-(2,2,2-trifluoro-ethylamino)-[1,2,3]triazolo[4,5-d]pyrimidin-3-yl]-5-(1H-tetrazol-5-yl)-cyclopentane-1,2-diol] | 1.21
9 | 0.416 | 0.73 | CCCSc1nc(NCCc2ccccc2)c2nnn([C@@H]3C[C@H](c4nnn[nH]4)[C@@H](O)[C@H]3O)c2n1 [Cpd 12, (1R,2S,3R,5R)-3-(7-phenethylamino-5-propylsulfanyl-[1,2,3]triazolo[4,5-d]pyrimidin-3-yl)-5-(1H-tetrazol-5-yl)-cyclopentane-1,2-diol] | 0.292
10 | 0.98 | 0.437 | CCCSc1nc(N[C@@H]2C[C@H]2c2ccccc2)c2nnn([C@@H]3C[C@H](Cn4nccn4)[C@@H](O)[C@H]3O)c2n1 (mixture of isomers) [Cpd 6, (1R,2S,3R,5R)-3-{7-[(1RS,2SR)-2-phenyl-cyclopropylamino]-5-propylsulfanyl-[1,2,3]triazolo[4,5-d]pyrimidin-3-yl}-5-[1,2,3]triazol-2-ylmethyl-cyclopentane-1,2-diol] | 0.954
11 | 2.17 | 2.16 | CCCCNc1nc(SCCC)nc2c1nnn2[C@@H]1C[C@H](c2nnc(C)[nH]2)[C@@H](O)[C@H]1O [Cpd 13, (1R,2S,3R,5R)-3-(7-butylamino-5-propylsulfanyl-[1,2,3]triazolo[4,5-d]pyrimidin-3-yl)-5-(5-methyl-4H-[1,2,4]triazol-3-yl)-cyclopentane-1,2-diol] | 1.39
